Measured values: patent EP1383793B1 (priority 2000, dated 2001)
Like-named read-outs stand apart in the source and are kept apart here. Residues, ends and D or L forms follow the SMILES beside them. No end group written: not given here. *: point of attachment. Biotin = O=C1N[C@H]2[C@H](CS[C@H]2CCCCC(=O)*)N1

Columns and labels:
[1] = target: T1, human insulin receptor (HIR) (Homo sapiens, UniProt P06213); assay: 125I-insulin competition binding assay on solubilised purified receptor
T1 construct: made in house

Insulin receptor = target: T2, Insulin receptor (Homo sapiens, UniProt P06213); assay: BIAcore competition: IR pre-incubated with test substance, injected over immobilised insulin; format: binding; details: peptide about 40 µM, IR 450 nM
T2 construct: composed of the extracellular domains of both the α and β chains of the natural receptor; made in house; background b13 names human embryonic kidney 293 cells for the Bass et al. construct
Description: Flowcell-1 was used for background binding to correct for any non-specific binding. […] The surface was regenerated with 25 mM NaOH. […] Thus, the system was validated for competition studies. […] The amino acid sequences referred to in the tables are identified in Figures 47 and 48, except the 447 and 2A9 sequences, which are shown below. TABLE 9: BIAcore Results-Fusion Proteins Compete for Binding to IR

[2] = target: human IGF-1 receptor (HIGF-1R) (Homo sapiens, UniProt P08069); assay: 125I-IGF-1 competition binding assay on solubilised purified receptor
IR = target: T3, IR (Homo sapiens, UniProt P06213); assay: Phage ELISA, binding of phage-displayed peptides to IR; details: 405 nm
T3 construct: composed of the extracellular domains of both the α and β chains of the natural receptor; made in house; background b13 names human embryonic kidney 293 cells for the Bass et al. construct
Description: Amino acid sequences comprising the motif of Formulas 1 through 10. […] Fifty microliters of this solution was added to an appropriate number of wells in a 96-well microtiter plate (MaxiSorp plates, Nunc) and incubated overnight at 4°C. […] To isolate specific binders, each library was panned against a soluble form of the human IR. This IR is composed of the extracellular domains of both the α and β chains of the natural receptor, as well as the constant domain from immunoglobulin Fc, retaining the β-α-α-β structure described above. Because the IR is expressed in a eukaryotic system, disulfide bond formation and glycosylation patterns should mimic the wild-type receptor. The details of this recombinant protein construct are described in Bass et al. (1996). Phage ELISA. […] The wells were blocked with 200 µl of MPBS for 1.5 h at RT. […] Peptides were added as noted below and allowed to incubate at RT for 3 h. The plates were washed 3 times with PBST. A solution of 1:3000 diluted HRP:Anti-M13 conjugate at 100 µl per well of was added for 1 h. Following a repeat of the washing, 100 µl of ABTS was added for 15-30 min. […] Phage ELISA. […] Peptides were added as noted below and allowed to incubate at RT for 3 h. […] A solution of 1:3000 diluted HRP:Anti-M13 Conjugate at 100 µl per well of was added for 1 h. Following a repeat of the washing, 100 µl of ABTS was added for 15-30 min. The OD405 was measured using a SpectraMax 340 Microplate Spectrophotometer.

adipocytes = assay: 3H-glucose uptake into adipocytes (fat cell assay, FFC); format: cell-based, Mouse; set-up: key to Resp.: -2 (antagonist); +2 (agonist); details: for Resp.: Subjective ranking, basal and sub maximal insulin, includes series A
IGF-1R [3] = target: T4, IGF-1R (Homo sapiens, UniProt P08069); assay: Phage ELISA, binding of phage-displayed peptides to IGF-1R; details: 405 nm
T4 construct: Soluble IGF-1R was obtained from R&D Systems; purchased R&D Systems 391-GR/CF
Description: Figures 1A-10G. Amino acid sequences comprising the motif of Formulas 1 through 10. […] One hundred microliters of this solution was added to an appropriate number of wells in a 96-well microtiter plate (MaxiSorp plates, Nunc) and incubated overnight at 4°C. […] Subsequent steps are the same for pooled and clonal phage. […] Phage resuspended in MPBS were added to duplicate wells (100 µl/well) and incubated at RT for 1 h. […] Incubation was for 1 h at RT, followed by PBS washes as described. […] Phage ELISA. […] The wells were blocked with 200 µl of MPBS for 1.5 h at RT. Phage were added at 100 µl per well. Peptides were added as noted below and allowed to incubate at RT for 3 h. The plates were washed 3 times with PBST. A solution of 1:3000 diluted HRP:Anti-M13 conjugate at 100 µl per well of was added for 1 h. Following a repeat of the washing, 100 µl of ABTS was added for 15-30 min. […] Phage ELISA. […] Phage were added at 100 µl per well. Peptides were added as noted below and allowed to incubate at RT for 3 h. The plates were washed 3X with PBST. A solution of 1:3000 diluted HRP:Anti-M13 Conjugate at 100 µl per well of was added for 1 h. Following a repeat of the washing, 100 µl of ABTS was added for 15-30 min. The OD405 was measured using a SpectraMax 340 Microplate Spectrophotometer.

[4] = Precipitate in diluted peptide stock prior to adding to the fat cell assay; solubility under assay conditions; format: physicochemical; details: diluted stock prior to adding to assay
IGF-1R [5] = target: T4, IGF-1R; assay: IGF-1R peptide assay, time-resolved FRET, competition with biotinylated 20E2 (IC50); format: binding
Description: Assays have been developed using Time-Resolved Fluorescence Resonance Energy Transfer (FRET). These assays are not radioactive, homogeneous (no wash steps), and can be rapidly carried out in 96- or 384-well microtiter plate format facilitating their use in high-throughput screening assays for small organic molecules.
The IGF-1R was labeled with Europium (Eu) by EG&G Wallac.
The Streptavidin-Allophycocynanin (SA-APC) was obtained from Prozyme Cat. # PJ25S.
• a. Preparation of the Assay Mix. […] This mixture was allowed to pre-incubate at RT in the dark for 1-2 h before competitor was added. • b. […] 100 µl of Buffer (TBS pH 8.0 + 0.1 % BSA) were dispensed to wells in columns 1 through 11. Competitors and Buffer were added to Column 12 wells so that the total volume is 150 µl. • c. […] Compounds are dissolved in 100% DMSO. Therefore, 100 µl of Buffer (TBS pH 8.0 + 0.1 % BSA) with 4% DMSO are dispensed to wells in columns 1 through 10. […] Compounds (6 µl) are added into 144 µl Buffer (No DMSO) to Column 12 wells. • d. Dilutions were performed across columns on the plate. Once competitors were dispensed into Column 12 and mixed, 50 µl of the solution Column 12 were transferred to wells in 11 and mixed. 50 µl of the Column 11 mixture was transferred to Column 10 wells. This was repeated until 50 µl of Column 3 mixture was transferred to Column 2 wells. Once accomplished to Column 2, 50 µl from Column 2 were removed and discarded. Column 1 wells were reserved for No Competitor Wells. 100 µl volume was therefore maintained across all columns. • e. 50 µl of the Assay Mix was dispensed into wells on a new 96-well microtiter plate. 50 µl from the Dilutions Plate were then added to this plate. • f. […] This covered plate was allowed to incubate at RT overnight. • g. […] Compounds begin at 200 µM in a working concentration of 2% DMSO. Controls also contained 2% DMSO.

For `CC(C)C[C@H](NC(=O)CNC(=O)[C@H](CC(N)=O)NC(=O)[C@H](Cc1ccc(O)cc1)NC(=O)[C@H](Cc1ccccc1)NC(=O)[C@H](C)NC(=O)[C@H](CCCNC(=N)N)NC(=O)[C@H](CC(=O)O)NC(=O)[C@@H](N)CCCCN)C(=O)N[C@@H](CCCNC(=N)N)C(=O)N[C@@H](CC(=O)O)C(=O)N[C@@H](CC(C)C)C(=O)N[C@H](C(=O)NCC(=O)N[C@@H](C)C(=O)N[C@H](C(=O)N[C@@H](Cc1ccc(O)cc1)C(=O)NCC(=O)N[C@@H](C)C(=O)N[C@@H](Cc1c[nH]c2ccccc12)C(=O)N[C@@H](CC(=O)O)C(=O)N[C@@H](CCCCN)C(=O)N[C@@H](CCCCNC(=O)CCCC[C@@H]1SC[C@@H]2NC(=O)N[C@@H]21)C(N)=O)C(C)C)C(C)C` [Clone 20C11] (H-KDRAFYNGLRDLVGAVYGAWDKK(Biotin)-NH2), the Kd ([1]; read-out: Kd (µM) HIR) was 4.5 µM, the “% Binding” value (Insulin receptor) was 38% and the Kd [2] was 13000 nM.
With `CC[C@H](C)[C@H](NC(=O)[C@H](C)NC(=O)[C@H](CC(=O)O)NC(=O)[C@H](Cc1ccc(O)cc1)NC(=O)[C@H](Cc1ccccc1)NC(=O)[C@H](CC(=O)O)NC(=O)[C@H](CCCCN)NC(=O)[C@H](Cc1ccc(O)cc1)NC(=O)[C@@H](N)CC(=O)O)C(=O)N[C@@H](CC(=O)O)C(=O)N[C@@H](CCC(N)=O)C(=O)N[C@@H](CC(C)C)C(=O)N[C@H](C(=O)N[C@@H](CCCNC(=N)N)C(=O)NCC(=O)N[C@@H](CO)C(=O)N[C@@H](C)C(=O)N[C@@H](CCCNC(=N)N)C(=O)N[C@@H](C)C(=O)NCC(=O)NCC(=O)N[C@H](C(=O)N[C@@H](CCCNC(=N)N)C(=O)N[C@@H](CC(=O)O)C(=O)N[C@@H](CCCCN)C(=O)N[C@@H](CCCCNC(=O)CCCC[C@@H]1SC[C@@H]2NC(=O)N[C@@H]21)C(N)=O)[C@@H](C)O)C(C)C` [Clone 20E2] (H-DYKDFYDAIDQLVRGSARAGGTRDKK(Biotin)-NH2; N-terminus assumed) the “Absorbance Values IR” value (IR) was 1.01, the “Comments (dose response, effect at basal insulin)” value (adipocytes) was “Biphasic dose response curve (needs repeating)” and the ED50 (adipocytes; Estimated, not calculated values) was “Approx 20 µM”. The Resp. (adipocytes) was “+2” and the “Absorbance Values sIGF-1R” value (IGF-1R [3]) was 2.15.
For `CSCC[C@H](NC(=O)[C@@H](NC(=O)[C@H](CO)NC(=O)[C@H](CC(C)C)NC(=O)[C@H](CC(C)C)NC(=O)[C@H](C)NC(=O)[C@H](CO)NC(=O)[C@H](Cc1c[nH]c2ccccc12)NC(=O)[C@@H](N)CCCCN)C(C)C)C(=O)N[C@@H](CC(=O)O)C(=O)N[C@H](C(=O)NCC(=O)N[C@@H](Cc1ccccc1)C(=O)N[C@@H](Cc1ccc(O)cc1)C(=O)N[C@@H](C)C(=O)N[C@@H](Cc1c[nH]c2ccccc12)C(=O)N[C@@H](Cc1ccccc1)C(=O)N[C@@H](CC(=O)O)C(=O)N[C@@H](CC(=O)O)C(=O)N[C@@H](C)C(=O)N[C@H](C(=O)N[C@@H](CCCCN)C(=O)N[C@@H](CCCCNC(=O)CCCC[C@@H]1SC[C@@H]2NC(=O)N[C@@H]21)C(N)=O)C(C)C)[C@@H](C)O` [Clone B8] (H-KWSALLSVMDTGFYAWFDDAVKK(Biotin)-NH2; N-terminus assumed), the “Absorbance Values IR” value (IR) was 1.30, the Resp. (adipocytes) was 0 and the Ratio ([2]; Kd HIGF1R / Kd HIR) was 20. The “Absorbance Values sIGF-1R” value (IGF-1R [3]) was 2.55.
For `CC(C)C[C@H](NC(=O)[C@@H](NC(=O)[C@@H](N)CCCCN)C(C)C)C(=O)N[C@@H](CCC(N)=O)C(=O)N[C@@H](C)C(=O)N[C@@H](CCCNC(=N)N)C(=O)N[C@@H](Cc1c[nH]cn1)C(=O)NCC(=O)N[C@@H](CS)C(=O)N[C@@H](CC(=O)O)C(=O)N[C@@H](CO)C(=O)N[C@H](C(=O)N[C@@H](CO)C(=O)N[C@@H](CC(=O)O)C(=O)N[C@@H](CS)C(=O)N[C@@H](Cc1ccccc1)C(=O)N[C@@H](Cc1ccc(O)cc1)C(=O)N[C@@H](CCC(=O)O)C(=O)N[C@@H](Cc1c[nH]c2ccccc12)C(=O)N[C@@H](Cc1ccccc1)C(=O)N[C@@H](C)C(=O)N[C@@H](CCCCN)C(=O)N[C@@H](CCCCNC(=O)CCCC[C@@H]1SC[C@@H]2NC(=O)N[C@@H]21)C(N)=O)C(C)C` [Clone D102] (H-KVLQARHGCDSVSDCFYEWFAKK(Biotin)-NH2; N-terminus assumed), the “Comments (precipitation)” value [4] was “Precipitates” and the Resp. (adipocytes) was 0.
With `CC(C)[C@H](NC(=O)[C@H](Cc1ccccc1)NC(=O)[C@H](Cc1c[nH]c2ccccc12)NC(=O)[C@H](CC(=O)O)NC(=O)[C@H](Cc1ccc(O)cc1)NC(=O)[C@H](Cc1ccccc1)NC(=O)[C@H](CC(N)=O)NC(=O)[C@H](CCC(=O)O)NC(=O)[C@H](Cc1c[nH]cn1)NC(=O)[C@H](Cc1ccccc1)NC(=O)[C@@H](N)CCCCN)C(=O)N[C@@H](CCCNC(=N)N)C(=O)N[C@@H](CCC(N)=O)C(=O)N[C@H](C(=O)N[C@@H](CO)C(=O)N[C@@H](CCCCN)C(=O)N[C@@H](CCCCNC(=O)CCCC[C@@H]1SC[C@@H]2NC(=O)N[C@@H]21)C(N)=O)C(C)C` [Clone D117K] the Kd ([1]; read-out: Kd (µM) HIR) was 0.82 µM and the Kd [2] was 9100 nM.
Compound `CSCC[C@H](NC(=O)[C@H](CC(C)C)NC(=O)[C@H](CCCNC(=N)N)NC(=O)[C@H](CC(=O)O)NC(=O)[C@H](CC(C)C)NC(=O)[C@H](C)NC(=O)[C@H](CC(=O)O)NC(=O)[C@@H](N)CC(C)C)C(=O)N[C@@H](CCCNC(=N)N)C(=O)N[C@@H](Cc1ccc(O)cc1)C(=O)N[C@@H](Cc1ccccc1)C(=O)N[C@@H](CCC(=O)O)C(=O)N[C@@H](CCC(=O)O)C(=O)N[C@@H](CCCNC(=N)N)C(=O)N1CCC[C@H]1C(=O)N[C@@H](CO)C(=O)N[C@@H](CC(C)C)C(N)=O` [Clone S173] has an IC50 (IGF-1R [5]) of 5620 nM.
`CC(C)C[C@H](NC(=O)[C@@H]1CCCN1)C(=O)N[C@@H](C)C(=O)N[C@@H](CCC(=O)O)C(=O)N[C@@H](CC(C)C)C(=O)N[C@@H](Cc1c[nH]c2ccccc12)C(=O)N[C@@H](C)C(=O)N[C@@H](Cc1ccc(O)cc1)C(=O)N[C@@H](Cc1ccccc1)C(=O)N[C@@H](CCC(=O)O)C(=O)N[C@@H](Cc1c[nH]cn1)C(=O)N[C@@H](CO)C(=O)N[C@@H](CCC(=O)O)C(=O)N[C@@H](CCC(N)=O)C(=O)NCC(=O)N[C@@H](CCCNC(=N)N)C(=O)N[C@@H](CO)C(=O)N[C@@H](CO)C(=O)N[C@@H](C)C(=O)N[C@@H](Cc1c[nH]cn1)C(N)=O` [Clone S174] gave a Kd ([1]; read-out: HIR affinity) of 16 µM and an IC50 (IGF-1R [5]) of 1460 nM.
Work on AFYDWFAKK-NH2 [Clone S167] yielded a Kd ([1]; read-out: HIR affinity) of over 20 µM and an IC50 (IGF-1R [5]) of about 100000 nM.
EHWNTVDPFYFTLFEWLRESG-NH2 [Clone S177] gave a Kd ([1]; read-out: HIR affinity) of 2.7 µM and an IC50 (IGF-1R [5]) of 2040 nM.
For EHWNTVDPFYQYFSELLRESG-NH2 [Clone S178], the Kd ([1]; read-out: HIR affinity) was 0.13 µM and the IC50 (IGF-1R [5]) was 240 nM.
For KSMFVAGSDRWPGYGVLADWLKK [Clone F2], the “Absorbance Values IR” value (IR) was 1.43 and the “Absorbance Values sIGF-1R” value (IGF-1R [3]) was 2.08.
Compound NGVERAGTGDNFYDWFVAQLH-NH2 [Clone S176] has a Kd ([1]; read-out: HIR affinity) of 0.47 µM and an IC50 (IGF-1R [5]) of 418 nM.
For QSDSGTVHDRFYGWFRDTWAS-NH2 [Clone S179], the Kd ([1]; read-out: HIR affinity) was 0.54 µM and the IC50 (IGF-1R [5]) was 5350 nM.
“TFYSCLASLLTGTPQPNRGPWERCR [20C-3-G3-IGFR]” gave an IC50 (IGF-1R [5]) of 184 nM.
